The values below come from patent US20090118286A1, “Heterobicyclic Acrylamides” (Bayer Cropscience AG, priority 2005, published 2009).

Like-named read-outs stand apart in the source and are kept apart here.

The nature of data set [1]: log P determination by HPLC (EEC Directive 79/831 Annex V.A8, gradient method). Particulars: for chromatographic logP: acetonitrile/0.1% strength aqueous phosphoric acid or formic acid. The format is physicochemical.
The test system of data set [2] is caterpillars of the army worm (Spodoptera frugiperda). Put plainly: Spodoptera frugiperda test, SPODFR spray treatment. The format is in vivo. To be noted: foliar, 168 h, 500 g a. i./ha, spray treatment of maize leaf discs, 7 d, read-out: % 7 d (effect in %, caterpillars killed). Here is the method: [table] To produce a suitable preparation of active compound, 1 part by weight of active compound is mixed with the stated amounts of solvents and emulsifier, and the concentrate is diluted with emulsifier-containing water to the desired concentration. Discs of maize leaves (Zea mays) are sprayed with a preparation of active compound of the desired concentration and, after drying, populated with caterpillars of the army worm (Spodoptera frugiperda). After the desired period of time, the effect in % is determined. 100% means that all caterpillars have been killed; 0% means that none of the caterpillars have been killed.

[3] abbreviates: HPLC, gradient method, read-out: Physical data (logP).
[4] abbreviates: HPLC, gradient method, read-out: Physical data: log P.

With `CC(NC(=O)/C=C/c1c(-c2ccc(Cl)cc2)nc2sc(C(F)(F)F)nn12)C(F)(F)F` (stereo not drawn) [Example 0024], the chromatographic logP in data set [1] (setting [3]) turned out to be 4.13. The pest or weed control at 500 g/ha in data set [2] was found to be 100%. Turning to `CC(NC(=O)/C=C/c1c(-c2cccc(Cl)c2)nc2sc(C(F)(F)F)nn12)C(F)(F)F` (stereo not drawn) [Example 0094], the pest or weed control at 500 g/ha in data set [2] was determined as 100%. As to `O=C(/C=C/c1c(-c2ccccc2Cl)nc2sc(C(F)(F)F)nn12)NC1CCC1` [Example 0153], the chromatographic logP in data set [1] (setting [3]) came to 3.33. In addition, the pest or weed control at 500 g/ha in data set [2] stood at 100%. As for `CCC(C)NC(=O)/C=C/c1c(-c2ccccc2Cl)nc2sc(C(F)(F)F)nn12` (stereo not drawn) [Example 0167], the chromatographic logP in data set [1] (setting [3]) came to 3.46. The pest or weed control at 500 g/ha in data set [2] came out at 100%. On the same counts, the results for `CCCC(C)NC(=O)/C=C/c1c(-c2ccccc2Cl)nc2sc(C(F)(F)F)nn12` (stereo not drawn) [Example 0168] are 3.85 and 100%. On the same counts, the results for `CC(C)C(C)NC(=O)/C=C/c1c(-c2ccccc2Cl)nc2sc(C(F)(F)F)nn12` (stereo not drawn) [Example 0174] are 3.76 and 83%. Turning to `CC(NC(=O)/C=C/c1c(-c2ccccc2Cl)nc2sc(C(F)(F)F)nn12)C(F)(F)F` (stereo not drawn) [Example 0175], the chromatographic logP in data set [1] (setting [3]) came out at 3.63. In data set [2], the pest or weed control at 500 g/ha worked out at 100%. The matching figures for `O=C(/C=C/c1c(-c2ccccc2Cl)nc2sc(C(F)(F)F)nn12)Nc1ccc(F)cc1` [Example 0201]: 4.08 and 100%. On the same counts, the results for `CCC(CC)NC(=O)/C=C/c1c(-c2ccccc2Cl)nc2sc(C(F)(F)F)nn12` [Example 0215] are 3.72 and 100%.

In the case of `O=C(/C=C/c1c(-c2ccccc2Cl)nc2sc(C(F)(F)F)nn12)N1CCOCC1` [Example 0223], in data set [1] (setting [4]), the chromatographic logP worked out at 2.79. In data set [2], the pest or weed control at 500 g/ha was 100%. As to `Cc1ccccc1-c1nc2sc(C(F)(F)F)nn2c1/C=C/C(=O)NC(C)C` [Example 0229], in data set [1] (setting [4]), the chromatographic logP was found to be 3.24. In addition, in data set [2], the pest or weed control at 500 g/ha stood at 100%.

For the molecule `CCC(C)NC(=O)/C=C/c1c(-c2ccccc2C)nc2sc(C(F)(F)F)nn12` (stereo not drawn) [Example 0238], the chromatographic logP in data set [1] (setting [4]) is 3.59. In data set [2], the pest or weed control at 500 g/ha was found to be 100%. On the same counts, the results for `CCCC(C)NC(=O)/C=C/c1c(-c2ccccc2C)nc2sc(C(F)(F)F)nn12` (stereo not drawn) [Example 0239] are 3.94 and 100%.

Consider `Cc1ccccc1-c1nc2sc(C(F)(F)F)nn2c1/C=C/C(=O)NC(C)C(C)C` (stereo not drawn) [Example 0245], for which the chromatographic logP in data set [1] (setting [4]) came out at 3.9. The pest or weed control at 500 g/ha in data set [2] amounted to 83%. On the same counts, the results for `Cc1ccccc1-c1nc2sc(C(F)(F)F)nn2c1/C=C/C(=O)NC(C)C(F)(F)F` (stereo not drawn) [Example 0246] are 3.76 and 100%.

Regarding `Cc1ccccc1-c1nc2sc(C(F)(F)F)nn2c1/C=C/C(=O)NC(C)c1ccccn1` (stereo not drawn) [Example 0274], the chromatographic logP in data set [1] (setting [4]) amounted to 2.45. For the same molecule, the pest or weed control at 500 g/ha in data set [2] is 100%.

In the case of `CCC(CC)NC(=O)/C=C/c1c(-c2ccccc2C)nc2sc(C(F)(F)F)nn12` [Example 0286], the chromatographic logP in data set [1] (setting [4]) came to 3.85. For the same molecule, the pest or weed control at 500 g/ha in data set [2] was 100%.

Turning to `CC(C)NC(=O)/C=C/c1c(-c2ccc(F)cc2)nc2sc(C(F)(F)F)nn12` [Example 0300], in data set [1] (setting [4]), the chromatographic logP was found to be 3.24. Besides, in data set [2], the pest or weed control at 500 g/ha came to 100%. On the same counts, the results for `CC(NC(=O)/C=C/c1c(-c2ccc(F)cc2)nc2sc(C(F)(F)F)nn12)C(F)(F)F` (stereo not drawn) [Example 0317] are 3.72 and 100%.

Consider `CC(C)NC(=O)/C=C/c1c(-c2ccccc2F)nc2sc(C(F)(F)F)nn12` [Example 0442], for which the chromatographic logP in data set [1] (setting [4]) is 2.96. In addition, in data set [2], the pest or weed control at 500 g/ha was determined as 100%. Turning to `CCC(C)NC(=O)/C=C/c1c(-c2ccccc2F)nc2sc(C(F)(F)F)nn12` (stereo not drawn) [Example 0451], the chromatographic logP in data set [1] (setting [4]) was 3.33. The pest or weed control at 500 g/ha in data set [2] was 100%. The matching figures for `CCCC(C)NC(=O)/C=C/c1c(-c2ccccc2F)nc2sc(C(F)(F)F)nn12` (stereo not drawn) [Example 0452]: 3.68 and 100%.

In the case of `CC(NC(=O)/C=C/c1c(-c2ccccc2F)nc2sc(C(F)(F)F)nn12)C(F)(F)F` (stereo not drawn) [Example 0459], the chromatographic logP in data set [1] (setting [4]) is 3.55. Moreover, the pest or weed control at 500 g/ha in data set [2] was determined as 100%. As to `CCC(CC)NC(=O)/C=C/c1c(-c2ccccc2F)nc2sc(C(F)(F)F)nn12` [Example 0499], the chromatographic logP in data set [1] (setting [4]) is 3.59. Besides, the pest or weed control at 500 g/ha in data set [2] was 83%. The matching figures for `CC(C)NC(=O)/C=C/c1c(-c2ccc(Cl)cc2Cl)nc2sc(C(F)(F)F)nn12` [Example 0513]: 3.69 and 100%. On the same counts, the results for `CC(C)(C)NC(=O)/C=C/c1c(-c2ccc(Cl)cc2Cl)nc2sc(C(F)(F)F)nn12` [Example 0515] are 4.32 and 100%. On the same counts, the results for `CC(NC(=O)/C=C/c1c(-c2ccc(Cl)cc2Cl)nc2sc(C(F)(F)F)nn12)C(F)(F)F` (stereo not drawn) [Example 0527] are 4.23 and 100%. `O=C(/C=C/c1c(-c2ccc(Cl)cc2Cl)nc2sc(C(F)(F)F)nn12)Nc1ccc(F)cc1` [Example 0553]: in data set [1] (setting [4]), the chromatographic logP stood at 4.63. The pest or weed control at 500 g/ha in data set [2] was 100%. On the same counts, the results for `CCN(CC)C(=O)/C=C/c1c(-c2ccc(Cl)cc2Cl)nc2sc(C(F)(F)F)nn12` [Example 0573] are 4.18 and 100%. As to `CC(C)NC(=O)/C=C/c1c(-c2ccc(F)cc2Cl)nc2sc(C(F)(F)F)nn12` [Example 0581], the chromatographic logP in data set [1] (setting [4]) stood at 3.32. In addition, the pest or weed control at 500 g/ha in data set [2] was 100%. The matching figures for `CC(C)(C)NC(=O)/C=C/c1c(-c2ccc(F)cc2Cl)nc2sc(C(F)(F)F)nn12` [Example 0583]: 3.89 and 100%. On the same counts, the results for `CCCC(C)NC(=O)/C=C/c1c(-c2ccc(F)cc2Cl)nc2sc(C(F)(F)F)nn12` (stereo not drawn) [Example 0591] are 4.02 and 100%.

Consider `COCC(C)NC(=O)/C=C/c1c(-c2ccc(F)cc2Cl)nc2sc(C(F)(F)F)nn12` (stereo not drawn) [Example 0592], for which, in data set [1] (setting [4]), the chromatographic logP was 3.11. In data set [2], the pest or weed control at 500 g/ha is 100%. On the same counts, the results for `CC(C)C(C)NC(=O)/C=C/c1c(-c2ccc(F)cc2Cl)nc2sc(C(F)(F)F)nn12` (stereo not drawn) [Example 0597] are 3.9 and 100%. On the same counts, the results for `CC(C)C(NC(=O)/C=C/c1c(-c2ccc(F)cc2Cl)nc2sc(C(F)(F)F)nn12)C(F)(F)F` (stereo not drawn) [Example 0599] are 4.37 and 100%.

As to `O=C(/C=C/c1c(-c2ccc(F)cc2Cl)nc2sc(C(F)(F)F)nn12)NCc1ccc(F)cc1` [Example 0614], the pest or weed control at 500 g/ha in data set [2] is 100%. `O=C(O)/C=C/c1c(-c2ccc(OCc3ccccc3)cc2)nc2sc(C(F)(F)F)nn12` [VA122]: in data set [1], the “Physical data (logP)” value came to 3.73. Take `O=C(O)/C=C/c1c(-c2ccc(-c3ccc(OC(F)(F)F)cc3)cc2)nc2sc(C(F)(F)F)nn12` [VA123]: in data set [1], the “Physical data (logP)” value was found to be 4.46.

With `O=C(O)/C=C/c1c(-c2ccc(Oc3ccc(Cl)cc3)cc2)nc2sc(C(F)(F)F)nn12` [VA124], the “Physical data (logP)” value in data set [1] was 4.22. Same read-out and setting: next, `O=C(O)/C=C/c1c(-c2ccc(Cl)nc2)nc2sc(C(F)(F)F)nn12` [VA125]: 2.42.

Turning to `O=C(O)/C=C/c1c(-c2sccc2Cl)nc2sc(C(F)(F)F)nn12` [VA126], the “Physical data (logP)” value in data set [1] is listed as 2.72. Still for that read-out and setting: the same measure for `O=C(O)/C=C/c1c(-c2ccc(F)cc2Cl)nc2sc(C(F)(F)C(F)F)nn12` [VA134]: 3.01; for `O=C(O)/C=C/c1c(-c2ccc(F)cc2Cl)nc2sc(C(F)(F)C(F)(F)C(F)(F)F)nn12` [VA135]: 3.75; for `O=C(O)/C=C/c1c(-c2csc(Cl)n2)nc2sc(C(F)(F)C(F)(F)F)nn12` [VA136]: 3.25.

As for `O=C(O)/C=C/c1c(-c2ccc(Cl)cc2Cl)nc2sc(C(F)(F)F)nn12` [VA-1, (2E)-3-[6-(2,4-Dichlorophenyl)-2-(trifluoromethyl)imidazo[2,1-b][1,3,4]thiadiazol-5-yl]acrylic Acid], the chromatographic logP in data set [1] (HPLC gradient method, preparation examples, read-out: log P) worked out at 3.15. Consider `Cc1ccccc1-c1nc2sc(C(F)(F)F)nn2c1/C=C/C(=O)O` [VA-5], for which, in data set [1], the “Physical data (logP)” value came to 2.77.

Regarding `O=C(O)/C=C/c1c(-c2ccc(F)cc2)nc2sc(C(F)(F)F)nn12` [VA-6], in data set [1], the “Physical data (logP)” value is listed as 2.75. Still for that read-out and setting: next, `O=C(O)/C=C/c1c(-c2cccc(C(F)(F)F)c2)nc2sc(C(F)(F)F)nn12` [VA-7]: 3.33; `O=C(O)/C=C/c1c(-c2ccccc2F)nc2sc(C(F)(F)F)nn12` [VA-8]: 2.55. For the molecule `O=C(O)/C=C/c1c(-c2ccc(F)cc2Cl)nc2sc(C(F)(F)F)nn12` [VA-9], in data set [1], the “Physical data (logP)” value amounted to 2.84. In the case of `COc1ccc(-c2nc3sc(C(F)(F)F)nn3c2/C=C/C(=O)O)cc1OC` [VA-10], in data set [1], the “Physical data (logP)” value turned out to be 2.43. On the same count and under the same terms, the same measure for `O=C(O)/C=C/c1c(-c2ccccc2Cl)nc2sc(C(F)F)nn12` [VA-14]: 2.41; for `O=C(O)/C=C/c1c(-c2ccccc2Cl)nc2sc(C(F)(F)Cl)nn12` [VA-24]: 2.93.
